Measurements: patent US20160193231A1, “RETT SYNDROME AND TREATMENTS THEREFORE” (RETT SYNDROME RESEARCH TRUST, priority 2013, published 2016)
Where a name gives a salt, the structure may show the parent alone. Read-outs that look alike come from different tables or passages of the source.

Columns and labels:
[1] = tested on: MECP2 mutant mice; experiment: Trait amelioration / symptom rescue in Mecp2 mutant mice; type: in vivo, mouse; details: for rescue of motor traits and longevity: male mice, drugs sub-cutaneously
[2] = tested on: 129.Mecp2^tm1.1Bird/Y mice; experiment: Open field locomotor activity, Mecp2 null males; type: in vivo, mouse
[3] = tested on: 129.Mecp2^tm1.1Bird/Y mice; experiment: Accelerating rotarod task, Mecp2 null males; type: in vivo, mouse
[4] = tested on: Mecp2^tm1.1Bird/Y mice; experiment: Peripheral fat measures of treated Mecp2 null males; type: in vivo, mouse; details: Example 6/FIG. 9; 25 mg/kg Sub-Q 2x per week
Protocol: The preparation of the agents used in this Example was as follows: metformin hydrochloride, was dissolved in saline (Sigma). The day of injection, the metformin was diluted to 18 parts stock solution, 1 part DMSO, and 1 part ethanol, such that the desired dose for a 20 g mouse was given in 100 ul. […] The animals were treated starting at 5 weeks of age until the age of 10 weeks, or for a period of 5 weeks. Body weights were obtained weekly starting at 5 weeks of age prior to treatment, and ending at 10 weeks, at the end of study. Shown in the FIG. 9 are the weights after 3 weeks of treatment (at 8 weeks of age, panel A) and after 5 weeks of treatment (10 weeks of age, panel D).

[5] = cited from earlier work
[6] = tested on: cytochrome p450 enzymes; details: cited from earlier work
[7] = in vivo; cited from earlier work
[8] = cited from earlier work; remark: listed apart in the source
[9] = cited from earlier work; remark: listed apart in the source
[10] = tested on: 129.Mecp2^tm1.1Bird/Y mice; experiment: Survival (longevity) of treated Mecp2 null male mice; type: in vivo, mouse; details: 129.Mecp2^tm1.1Bird/Y males, fluvastatin 3 mg/kg s.c.
[11] = tested on: 129.Mecp2^tm1.1Bird/Y mice; experiment: Liver lipid measurement, Mecp2 null males; type: in vivo, mouse; details: P70; fluvastatin p=0.02; lovastatin p=0.386
[12] = tested on: 129.Mecp2^tm1.1Bird/Y mice; experiment: Serum/plasma cholesterol, Mecp2 null males; type: in vivo, mouse; details: by P70; fluvastatin p=0.001, lovastatin p=0.001
[13] = Example 6/FIG. 9, 25 mg/kg Sub-Q (3 mg/kg elsewhere in the source) 2x per week, vs vehicle

Cl.F/C(COc1ccc2c(c1)[nH]c1ccccc12)=C1/CN2CCC1CC2 [(E)-2-[2-fluoro-2-(quinuclidin-3-ylidene)ethoxy]-9H-carbazole monohydrochloride]
improvement of symptoms ([1]; Mecp2 mice, drugs targeting squalene synthase or squalene epoxidase): did not significantly improve symptoms

O=S(=O)(c1ccccc1)N(CC(F)(F)F)c1ccc(C(O)(C(F)(F)F)C(F)(F)F)cc1 [T090317]
motor performance, open field activity [2, 13]: improved motor performance | motor performance, rotarod [3, 13]: improved motor performance | peripheral fat measures [4]: did not appear to improve

CC(C)c1c(C(=O)Nc2ccccc2)c(-c2ccccc2)c(-c2ccc(F)cc2)n1CC[C@@H](O)C[C@@H](O)CC(=O)O [atorvastatin]
rescue of motor traits and longevity [1]: varying degrees of rescue

CC(C)n1c(/C=C/C(O)CC(O)CC(=O)O)c(-c2ccc(F)cc2)c2ccccc21 (stereo not shown) [fluvastatin]
solubility in water [5]: soluble in water | Metabolized by: [6]: Cyp2C9 | half-life [7]: approximately 96 hours | LD50 (oral): ([8]; mouse, in vivo, po): >2000 mg/kg | Lipophilicity (LogD): [9]: 1.00-1.25 | survival beyond 120 days [10]: 57% | median longevity ([10]; compared to 87 days, p<0.0001): 122 days

CC[C@H](C)C(=O)O[C@H]1C[C@@H](C)C=C2C=C[C@H](C)[C@H](CC[C@@H]3C[C@@H](O)CC(=O)O3)[C@H]21 [lovastatin]
elevated lipid concentration in livers [11]: ameliorates | plasma cholesterol [12]: lowers | rescue of motor traits and longevity [1]: best rescue | Open field activity (beam breaks) ([2]; P70 treated null males vs vehicle, fluvastatin p=0.026, lovastatin p=0.011): increased | Metabolized by: [6]: Cyp3A4 | Rotarod performance ([3]; P56 treated null males vs vehicle, fluvastatin 3 mg/kg s.c. p=0.015, lovastatin […] s.c. p=0.009): improves | LD50 (oral): ([8]; (mouse)): >1000 mg/kg | Lipophilicity (LogD): [9]: 1.75-1.50

CN(C)C(=N)N=C(N)N [metformin, metformin hydrochloride]
effect on Mecp2^tm1.1Bird/Y mice (FIG. 9 measures) ([1]; Example 6, 30 mg/kg IP 2x per week, 5 to 10 weeks of age, vs vehicle): little effect

CCC(C)(C)C(=O)O[C@H]1C[C@@H](C)C=C2C=C[C@H](C)[C@H](CC[C@@H]3C[C@@H](O)CC(=O)O3)[C@H]21 [simvastatin]
half-life [7]: 2 to 3 h
